According to patent publication US20150335657A1, “Methods for Modulating Sirtuin Enzymes” (The Trustees of Princeton University, priority 2014, published 2015):

Assays:
[1] = system: human cytomegalovirus (HCMV) AD169 strain; experiment: Antiviral activity against HCMV in MRC5 fibroblasts (virus yield, fluorescent focus assay); format: cell-based; conditions: Human betaherpesvirus 5, HCMV AD169, 1 infectious unit/cell, treated 2 h after infection, virus in medium at 96 h
SIRT1 = target: T1, SIRT1 (Homo sapiens, UniProt Q96EB6); experiment: Sirtuin deacetylase enzyme activity assay (Cayman Chemical), compound screen; format: biochemical; conditions: compound at 50 μM; Z-score of change in fluorescent signal; + increase, − decrease
T1 construct: purchased Cayman Chemical
T1 sequence (Q96EB6 1-747): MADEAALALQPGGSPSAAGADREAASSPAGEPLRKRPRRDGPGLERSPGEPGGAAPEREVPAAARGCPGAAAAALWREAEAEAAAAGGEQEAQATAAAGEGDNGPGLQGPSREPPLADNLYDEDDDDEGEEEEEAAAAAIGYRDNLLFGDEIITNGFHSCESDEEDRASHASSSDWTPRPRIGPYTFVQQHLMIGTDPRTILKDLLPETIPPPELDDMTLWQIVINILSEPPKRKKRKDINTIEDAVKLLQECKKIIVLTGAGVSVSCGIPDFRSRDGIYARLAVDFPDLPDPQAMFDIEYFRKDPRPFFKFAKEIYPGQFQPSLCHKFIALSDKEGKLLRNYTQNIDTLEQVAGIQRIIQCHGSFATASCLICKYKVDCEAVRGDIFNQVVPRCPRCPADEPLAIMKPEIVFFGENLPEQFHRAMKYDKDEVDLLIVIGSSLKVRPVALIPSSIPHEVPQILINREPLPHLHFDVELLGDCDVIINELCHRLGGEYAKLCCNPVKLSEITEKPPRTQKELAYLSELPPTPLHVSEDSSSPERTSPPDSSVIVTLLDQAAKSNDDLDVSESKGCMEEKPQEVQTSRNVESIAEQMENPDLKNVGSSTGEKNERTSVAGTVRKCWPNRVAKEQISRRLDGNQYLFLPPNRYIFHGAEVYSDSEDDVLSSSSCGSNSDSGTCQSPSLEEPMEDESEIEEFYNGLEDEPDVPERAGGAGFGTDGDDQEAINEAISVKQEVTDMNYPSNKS
Description: (§1) Sirtuins have been identified as innate viral restriction factors and it has been previously shown that drugs that modulate the activity of these enzymes block the production of multiple viruses in culture (see, e.g., WO 2012/106509). Sirtuins are NAD-dependent enzymes that regulate the activity of target proteins by post-translational modifications and thereby control key cellular events (see, e.g., Haigis and Sinclair (2010) Ann Rev Pathol Mech Dis 5:253-95). SIRT1, SIRT2, SIRT3 and SIRT6 have shown a detectable deacetylase activity in well-established biochemical assays that utilize recombinant SIRT1, SIRT2, SIRT3, and SIRT6 enzymes and fluorophore-conjugated acetyl-peptides. As described in the Examples below, the deacetylase activity of these sirtuins were used as a surrogate to identify compounds having broad-range antiviral activity.
(§2) A publically disclosed, small molecule library consisting of approximately 13,000 compounds was screened using a commercially available (Cayman Chemical) enzyme activity assay. Deacetylase activity of sirtuins SIRT1, SIRT2, SIRT3, and SIRT6 was used as a surrogate to identify compounds with the potential for having broad-range antiviral activity. The compounds were tested at a single concentration (50 μM) in microtiter plates and their activity against the four sirtuins was recorded as a change in fluorescent signal intensity. […] Activation of sirtuin activity generated positive Z-scores and inhibition of sirtuin activity produced negative Z-scores.

SIRT6 = target: T2, SIRT6 (Homo sapiens, UniProt Q8N6T7); experiment: as above; format: biochemical; conditions: compound at 50 μM; Z-score of change in fluorescent signal; + increase, − decrease
T2 construct: purchased Cayman Chemical
Description: as §1, §2

SIRT2 = target: T3, SIRT2 (Homo sapiens, UniProt Q8IXJ6); experiment: as above; format: biochemical; conditions: compound at 50 μM; Z-score of change in fluorescent signal; + increase, − decrease
T3 construct: purchased Cayman Chemical
T3 sequence (Q8IXJ6 1-389): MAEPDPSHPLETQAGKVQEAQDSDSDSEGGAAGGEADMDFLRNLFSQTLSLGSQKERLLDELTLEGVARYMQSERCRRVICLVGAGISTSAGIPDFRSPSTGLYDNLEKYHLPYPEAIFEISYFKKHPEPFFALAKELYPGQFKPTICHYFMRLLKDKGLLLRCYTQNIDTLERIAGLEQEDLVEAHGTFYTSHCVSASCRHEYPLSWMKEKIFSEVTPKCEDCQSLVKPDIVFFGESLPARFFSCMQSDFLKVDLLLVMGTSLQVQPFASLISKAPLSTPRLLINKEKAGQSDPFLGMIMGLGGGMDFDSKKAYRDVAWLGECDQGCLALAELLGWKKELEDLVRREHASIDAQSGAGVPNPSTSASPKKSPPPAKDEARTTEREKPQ
Description: as §1, §2

SIRT3 = target: T4, SIRT3 (Homo sapiens, UniProt Q9NTG7); experiment: as above; format: biochemical; conditions: compound at 50 μM; Z-score of change in fluorescent signal; + increase, − decrease
T4 construct: purchased Cayman Chemical
T4 sequence (Q9NTG7 1-399): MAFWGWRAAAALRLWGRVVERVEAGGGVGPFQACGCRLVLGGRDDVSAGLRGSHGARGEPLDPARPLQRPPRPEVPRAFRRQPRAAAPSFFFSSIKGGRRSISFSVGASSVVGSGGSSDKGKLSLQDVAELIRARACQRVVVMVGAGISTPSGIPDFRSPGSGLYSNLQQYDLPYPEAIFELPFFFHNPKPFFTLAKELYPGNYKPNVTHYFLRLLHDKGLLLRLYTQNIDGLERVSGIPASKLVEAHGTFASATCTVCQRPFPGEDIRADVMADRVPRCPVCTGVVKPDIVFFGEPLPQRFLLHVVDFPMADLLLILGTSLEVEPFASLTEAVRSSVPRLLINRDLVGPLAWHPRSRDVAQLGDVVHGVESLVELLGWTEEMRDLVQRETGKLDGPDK
Description: as §1, §2

[2] = Tetrazolium-based cell viability assay (cytotoxicity); conditions: human

T2 sequence (Q8N6T7 whole entry): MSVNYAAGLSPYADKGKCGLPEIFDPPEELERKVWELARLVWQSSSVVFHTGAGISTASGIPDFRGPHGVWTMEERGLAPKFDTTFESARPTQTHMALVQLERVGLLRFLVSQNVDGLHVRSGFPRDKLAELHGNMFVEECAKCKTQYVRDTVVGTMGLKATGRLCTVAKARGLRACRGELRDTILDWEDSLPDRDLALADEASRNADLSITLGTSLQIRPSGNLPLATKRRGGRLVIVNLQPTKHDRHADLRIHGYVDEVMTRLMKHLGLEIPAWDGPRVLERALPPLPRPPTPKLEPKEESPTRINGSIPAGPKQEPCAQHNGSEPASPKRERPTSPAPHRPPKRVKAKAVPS

SMILES	IC50 [1]	IC90 [1]	SIRT1 (change in sirtuin deacetylase activity, Z-score class) (SIRT1)	SIRT6 (change in sirtuin deacetylase activity, Z-score class) (SIRT6)	SIRT2 (change in sirtuin deacetylase activity, Z-score class) (SIRT2)	SIRT3 (change in sirtuin deacetylase activity, Z-score class) (SIRT3)	CC50 at 96 h [2]
CC(c1ccccc1F)C(O)CNc1ccc(O)nc1 (stereo not drawn)	19.4 µM	44 µM	na (−2 ≦ Z-score < 2 = no activity (na))	+++ (Z-score ≧ 3 = +++)	na (−2 ≦ Z-score < 2 = no activity (na))	+++ (Z-score ≧ 3 = +++)	> 50 µM
CCOc1cc(C)n(C(CNc2cnc3ccccc3c2)C(C)c2cccnc2C)n1 (stereo not drawn)	8.26 µM	33.9 µM	++ (2 ≦ Z-score < 3 = ++)	+++ (Z-score ≧ 3 = +++)	++ (2 ≦ Z-score < 3 = ++)	+++ (Z-score ≧ 3 = +++)	> 50 µM
CCN1CC(C(C)c2ccc(C)nc2)Oc2ccc(C(F)(F)F)cc2C1=O (stereo not drawn)	18.4 µM	42.3 µM	na (−2 ≦ Z-score < 2 = no activity (na))	na (−2 ≦ Z-score < 2 = no activity (na))	+++ (Z-score ≧ 3 = +++)	na (−2 ≦ Z-score < 2 = no activity (na))	> 50 µM
CC(c1cnc2ccccc2c1)C(F)C1N(Cc2ccccc2)C(=O)c2cccnc2N1C (stereo not drawn)	1.74 µM	16.1 µM	+++ (Z-score ≧ 3 = +++)	+++ (Z-score ≧ 3 = +++)	+++ (Z-score ≧ 3 = +++)	+++ (Z-score ≧ 3 = +++)	> 50 µM
CC(C)c1cc(N)n(C(C(=O)O)C(C)c2ccccc2Cl)n1 (stereo not drawn)	25.5 µM	57.9 µM	−− (−3 < Z-score ≦ −2 = −−)	na (−2 ≦ Z-score < 2 = no activity (na))	−− (−3 < Z-score ≦ −2 = −−)	na (−2 ≦ Z-score < 2 = no activity (na))	> 50 µM
COc1ccc2[nH]cc(C(C)CCNc3cccnc3)c2c1 (stereo not drawn)	17.4 µM	46.5 µM	na (−2 ≦ Z-score < 2 = no activity (na))	na (−2 ≦ Z-score < 2 = no activity (na))	+++ (Z-score ≧ 3 = +++)	na (−2 ≦ Z-score < 2 = no activity (na))	> 50 µM
CC(c1ccnn1C)C(CN1CCN(C)CC1)Oc1ccc(C#N)cn1 (stereo not drawn)	21.1 µM	42.4 µM	−− (−3 < Z-score ≦ −2 = −−)	+++ (Z-score ≧ 3 = +++)	na (−2 ≦ Z-score < 2 = no activity (na))	na (−2 ≦ Z-score < 2 = no activity (na))	> 50 µM
CNC(=O)c1cccc(CN(CCC(C)C(C)C)S(=O)(=O)c2c(C)noc2C)c1 (stereo not drawn)	10.2 µM	32.8 µM	na (−2 ≦ Z-score < 2 = no activity (na))	+++ (Z-score ≧ 3 = +++)	na (−2 ≦ Z-score < 2 = no activity (na))	na (−2 ≦ Z-score < 2 = no activity (na))	25 to 50 µM
CC(c1cnc2ccccc2c1)C(F)CNc1cnc2ccccc2c1 (stereo not drawn)	6.89 µM	17.6 µM	na (−2 ≦ Z-score < 2 = no activity (na))	+++ (Z-score ≧ 3 = +++)	na (−2 ≦ Z-score < 2 = no activity (na))	na (−2 ≦ Z-score < 2 = no activity (na))	> 50 µM
CC(c1ccc2nccnc2c1)c1cnc(N2CCc3ccccc3C2)s1 (stereo not drawn)	4.58 µM	5.95 µM	−− (−3 < Z-score ≦ −2 = −−)	na (−2 ≦ Z-score < 2 = no activity (na))	−− (−3 < Z-score ≦ −2 = −−)	na (−2 ≦ Z-score < 2 = no activity (na))	> 50 µM
COc1ccccc1C1C(=O)N(C(C)C)CC1O (stereo not drawn)	23.9 µM	47.2 µM	na (−2 ≦ Z-score < 2 = no activity (na))	na (−2 ≦ Z-score < 2 = no activity (na))	+++ (Z-score ≧ 3 = +++)	na (−2 ≦ Z-score < 2 = no activity (na))	> 50 µM
COc1cccc(C(C)C(O)Cn2cc(-c3cc(Cl)cnc3N)nn2)c1 (stereo not drawn)	26.2 µM	44.3 µM	+++ (Z-score ≧ 3 = +++)	+++ (Z-score ≧ 3 = +++)	na (−2 ≦ Z-score < 2 = no activity (na))	na (−2 ≦ Z-score < 2 = no activity (na))	> 50 µM
